Molecules are shown by their SMILES.

Common to all, as to assay type: biochemical
The target of one test is T1, SIK3 (Homo sapiens, UniProt Q9Y2K2).
T1 construct: purchased Life Technologies
Nature of the test: SIK3 kinase assay, IMAP fluorescence polarization. The conditions noted are these: 50 or 100 μM ATP, average. The protocol: (§1) SIK2, SIK1, SIK3, Abl, Src and EPHA2 Kinase Assays
(§2) SIK2, SIK1, SIK3, Abl, Src and EPHA2 assays were performed using an IMAP fluorescence polarization assay format (Molecular Devices Inc.). 0.6-13 nM of each kinase (Life Technologies) was incubated for 60 min at room temperature with 100 nM of either FAM-Abltide, FAM-Srctide or FAM-HDAC protein derived peptide (synthesized by Alta Biosciences, Birmingham UK). Assays were carried out in the presence of 50 or 100 μM ATP in either 20 mM Tris buffer (pH 7.2) containing 4 mM MgCl2, 0.2% BSA and 2 mM DTT (SIK2, SIK1, SIK3, Abl, Src); or 20 mM Tris buffer (pH 8.5) containing 20 mM MgCl2, 0.5% BSA, 0.2% Triton and 5 mM DTT (EPHA2). Typically, dose response analyses were performed over concentration ranges from 0.00005-1 μM. Reactions were stopped by adding 2 assay volumes of 0.25% (v/v) IMAP binding reagent in either an 85:15 ratio (SIK2, SIK1, SIK3, Abl, EPHA2) or 30:70 ratio (Src) of IMAP binding buffers A and B (Molecular Devices). After incubation to allow the detection reagents to bind to the phosphorylated peptide, fluorescence polarization was measured on a Tecan Infinite plate reader at excitation (470 nm) and emission (530 nm) wavelengths. Inhibition was calculated using no inhibitor and no enzyme controls as 0 and 100% inhibition, respectively.
(§3) Table 3 provides details of the inhibitory constant (nM) of compounds of the invention at SIK1, SIK2 and SIK3 and other kinases.

The next test concerns the target T2, EPHA2 (Homo sapiens, UniProt P29317).
T2 construct: purchased Life Technologies
Nature of the test: EPHA2 kinase assay, IMAP fluorescence polarization. As to conditions: 50 or 100 μM ATP, Tris pH 8.5, average. The protocol:
as §1, §2, §3
(In general: Polarisation of emitted light reports the rotation of a fluorescent probe.)

A further test has as its target T3, SIK1 (Homo sapiens, UniProt P57059).
T3 construct: purchased Life Technologies
Nature of the test: SIK1 kinase assay, IMAP fluorescence polarization. The conditions noted are these: 50 or 100 μM ATP, average. The procedure:
as §1, §2, §3

The target in the next test is T4, Src (Homo sapiens, UniProt P12931).
T4 construct: purchased Life Technologies
Nature of the test: Src kinase assay, IMAP fluorescence polarization. As to conditions: 50 or 100 μM ATP, average. The protocol:
as §1, §2, §3

The next test has as its target T5, Abl (Homo sapiens, UniProt P00519).
T5 construct: purchased Life Technologies
The test can be described thus: Abl kinase assay, IMAP fluorescence polarization. As to conditions: 50 or 100 μM ATP, average. The protocol:
as §1, §2, §3

The target in a further test is T6, SIK2 (Homo sapiens, UniProt Q9H0K1).
T6 construct: purchased Life Technologies
T6 sequence (Q9H0K1 whole entry): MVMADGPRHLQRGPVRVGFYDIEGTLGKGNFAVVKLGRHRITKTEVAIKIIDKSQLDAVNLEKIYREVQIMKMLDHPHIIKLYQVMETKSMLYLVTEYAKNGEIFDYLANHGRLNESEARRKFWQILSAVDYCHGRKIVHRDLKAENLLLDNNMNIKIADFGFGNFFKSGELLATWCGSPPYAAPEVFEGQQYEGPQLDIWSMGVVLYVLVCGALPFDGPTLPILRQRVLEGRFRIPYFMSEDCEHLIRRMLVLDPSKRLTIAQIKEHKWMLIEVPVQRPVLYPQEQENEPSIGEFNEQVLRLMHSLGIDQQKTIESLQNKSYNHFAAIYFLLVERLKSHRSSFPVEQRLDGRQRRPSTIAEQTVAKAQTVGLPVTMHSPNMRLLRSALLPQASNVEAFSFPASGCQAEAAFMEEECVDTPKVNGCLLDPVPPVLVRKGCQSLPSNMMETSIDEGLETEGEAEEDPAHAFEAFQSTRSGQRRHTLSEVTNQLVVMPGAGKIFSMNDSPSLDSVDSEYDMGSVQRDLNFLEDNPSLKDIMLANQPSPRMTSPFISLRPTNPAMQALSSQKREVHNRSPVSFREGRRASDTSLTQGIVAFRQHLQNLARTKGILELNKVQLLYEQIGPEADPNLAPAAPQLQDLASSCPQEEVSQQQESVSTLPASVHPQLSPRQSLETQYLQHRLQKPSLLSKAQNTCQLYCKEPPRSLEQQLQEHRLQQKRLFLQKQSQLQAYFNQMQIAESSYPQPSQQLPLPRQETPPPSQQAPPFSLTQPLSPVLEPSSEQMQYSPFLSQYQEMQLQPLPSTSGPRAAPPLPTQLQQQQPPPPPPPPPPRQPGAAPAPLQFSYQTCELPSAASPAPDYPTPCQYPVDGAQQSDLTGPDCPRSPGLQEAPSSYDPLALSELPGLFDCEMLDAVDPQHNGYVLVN
The test can be described thus: SIK2 kinase assay, IMAP fluorescence polarization. The conditions noted are these: 50 or 100 μM ATP, average. The procedure, abridged:
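Phosphorylation of 100 nM FAM-peptide by 0.6-13 nM kinase (50 or 100 μM ATP, pH 7.2 Tris/MgCl2 buffer, 60 min, RT) was quantified by IMAP fluorescence polarization. Stop reagent: 0.25% IMAP binding reagent, buffer A:B 85:15, except 30:70 for Src.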

T5 sequence (P00519 whole entry): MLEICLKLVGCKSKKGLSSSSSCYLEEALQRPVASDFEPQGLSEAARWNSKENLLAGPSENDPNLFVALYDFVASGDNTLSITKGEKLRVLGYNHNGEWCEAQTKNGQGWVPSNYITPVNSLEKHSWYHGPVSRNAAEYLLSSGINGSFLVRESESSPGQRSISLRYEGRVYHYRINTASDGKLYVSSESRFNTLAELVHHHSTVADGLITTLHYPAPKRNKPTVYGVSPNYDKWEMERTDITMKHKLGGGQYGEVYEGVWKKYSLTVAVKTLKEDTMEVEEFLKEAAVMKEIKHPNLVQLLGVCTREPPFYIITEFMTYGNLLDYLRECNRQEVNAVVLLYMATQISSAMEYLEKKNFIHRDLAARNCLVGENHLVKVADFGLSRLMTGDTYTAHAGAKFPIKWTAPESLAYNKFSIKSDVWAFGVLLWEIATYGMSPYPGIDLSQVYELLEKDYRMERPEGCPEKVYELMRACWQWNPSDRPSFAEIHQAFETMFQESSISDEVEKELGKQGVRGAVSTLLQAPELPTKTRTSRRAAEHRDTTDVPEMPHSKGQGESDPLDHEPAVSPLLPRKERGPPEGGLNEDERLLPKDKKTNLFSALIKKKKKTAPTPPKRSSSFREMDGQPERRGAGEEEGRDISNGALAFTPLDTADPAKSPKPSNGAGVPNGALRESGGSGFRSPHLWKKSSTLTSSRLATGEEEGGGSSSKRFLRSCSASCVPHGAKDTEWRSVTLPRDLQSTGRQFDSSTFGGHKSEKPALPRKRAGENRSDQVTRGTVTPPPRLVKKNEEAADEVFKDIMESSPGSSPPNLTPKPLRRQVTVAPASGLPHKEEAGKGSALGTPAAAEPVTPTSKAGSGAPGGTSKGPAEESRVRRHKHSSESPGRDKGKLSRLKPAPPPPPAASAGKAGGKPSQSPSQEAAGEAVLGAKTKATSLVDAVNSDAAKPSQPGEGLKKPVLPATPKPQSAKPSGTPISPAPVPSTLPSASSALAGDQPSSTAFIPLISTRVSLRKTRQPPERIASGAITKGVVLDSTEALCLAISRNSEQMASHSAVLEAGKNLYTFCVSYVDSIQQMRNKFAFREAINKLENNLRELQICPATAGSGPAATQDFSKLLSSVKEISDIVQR
T2 sequence (P29317 24-976): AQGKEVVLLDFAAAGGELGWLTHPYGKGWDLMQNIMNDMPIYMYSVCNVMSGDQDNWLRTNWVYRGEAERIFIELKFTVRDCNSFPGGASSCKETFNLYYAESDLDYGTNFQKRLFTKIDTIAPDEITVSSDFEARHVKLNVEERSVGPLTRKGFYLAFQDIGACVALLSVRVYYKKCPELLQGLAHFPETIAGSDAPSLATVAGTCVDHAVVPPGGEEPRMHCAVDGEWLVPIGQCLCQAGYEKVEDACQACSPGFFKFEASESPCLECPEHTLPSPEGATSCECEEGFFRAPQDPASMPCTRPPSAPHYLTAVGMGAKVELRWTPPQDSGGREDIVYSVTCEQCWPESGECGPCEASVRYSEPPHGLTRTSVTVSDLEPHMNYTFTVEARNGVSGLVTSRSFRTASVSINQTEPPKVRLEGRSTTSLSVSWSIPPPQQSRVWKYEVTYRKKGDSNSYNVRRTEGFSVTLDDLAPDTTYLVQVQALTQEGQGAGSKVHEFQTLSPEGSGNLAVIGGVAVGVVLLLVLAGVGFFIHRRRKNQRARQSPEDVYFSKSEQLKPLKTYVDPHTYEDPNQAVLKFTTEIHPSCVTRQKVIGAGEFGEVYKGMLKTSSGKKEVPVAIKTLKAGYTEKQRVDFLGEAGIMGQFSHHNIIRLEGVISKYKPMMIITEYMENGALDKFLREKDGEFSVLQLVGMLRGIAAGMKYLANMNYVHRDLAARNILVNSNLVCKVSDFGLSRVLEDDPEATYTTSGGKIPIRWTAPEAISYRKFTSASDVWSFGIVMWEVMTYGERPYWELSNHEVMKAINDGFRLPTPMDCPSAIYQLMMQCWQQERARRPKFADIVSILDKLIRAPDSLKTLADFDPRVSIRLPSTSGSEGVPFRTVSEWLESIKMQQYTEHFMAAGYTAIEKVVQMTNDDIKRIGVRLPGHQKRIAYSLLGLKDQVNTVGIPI
T1 sequence (Q9Y2K2 whole entry): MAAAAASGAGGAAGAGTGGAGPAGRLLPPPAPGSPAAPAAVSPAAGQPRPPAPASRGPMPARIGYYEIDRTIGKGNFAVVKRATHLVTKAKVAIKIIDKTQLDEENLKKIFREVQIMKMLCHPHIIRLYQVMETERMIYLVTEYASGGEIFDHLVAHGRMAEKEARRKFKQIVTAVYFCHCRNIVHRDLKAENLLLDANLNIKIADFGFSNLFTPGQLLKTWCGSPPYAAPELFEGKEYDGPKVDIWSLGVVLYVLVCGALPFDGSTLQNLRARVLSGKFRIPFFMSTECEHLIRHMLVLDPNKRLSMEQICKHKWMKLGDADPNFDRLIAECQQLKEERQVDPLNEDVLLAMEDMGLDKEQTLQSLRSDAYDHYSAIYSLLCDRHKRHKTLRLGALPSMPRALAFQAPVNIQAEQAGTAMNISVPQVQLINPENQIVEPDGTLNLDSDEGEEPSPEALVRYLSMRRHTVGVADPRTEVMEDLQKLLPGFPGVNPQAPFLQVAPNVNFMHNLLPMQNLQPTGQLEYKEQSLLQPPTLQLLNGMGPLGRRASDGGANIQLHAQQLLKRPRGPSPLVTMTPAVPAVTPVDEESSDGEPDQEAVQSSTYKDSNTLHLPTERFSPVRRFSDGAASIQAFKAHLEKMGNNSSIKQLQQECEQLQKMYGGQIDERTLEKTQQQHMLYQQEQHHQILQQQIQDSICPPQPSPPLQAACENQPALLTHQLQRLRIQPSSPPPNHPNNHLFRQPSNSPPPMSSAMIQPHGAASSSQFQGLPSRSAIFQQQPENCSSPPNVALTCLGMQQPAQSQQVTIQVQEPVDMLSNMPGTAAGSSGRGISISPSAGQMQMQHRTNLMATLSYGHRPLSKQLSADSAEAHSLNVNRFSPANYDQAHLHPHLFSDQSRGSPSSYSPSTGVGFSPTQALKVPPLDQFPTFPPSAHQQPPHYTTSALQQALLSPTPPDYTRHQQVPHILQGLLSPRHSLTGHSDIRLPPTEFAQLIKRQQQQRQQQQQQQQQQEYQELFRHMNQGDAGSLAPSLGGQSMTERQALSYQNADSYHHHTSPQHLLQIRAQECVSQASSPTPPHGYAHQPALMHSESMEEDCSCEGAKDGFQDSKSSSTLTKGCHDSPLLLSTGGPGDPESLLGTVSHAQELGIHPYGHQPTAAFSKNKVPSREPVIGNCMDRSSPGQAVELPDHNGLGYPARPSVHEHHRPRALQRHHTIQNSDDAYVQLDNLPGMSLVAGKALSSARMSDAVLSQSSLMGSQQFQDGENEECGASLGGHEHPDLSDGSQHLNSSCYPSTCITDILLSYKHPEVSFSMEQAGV
T3 sequence (P57059 whole entry): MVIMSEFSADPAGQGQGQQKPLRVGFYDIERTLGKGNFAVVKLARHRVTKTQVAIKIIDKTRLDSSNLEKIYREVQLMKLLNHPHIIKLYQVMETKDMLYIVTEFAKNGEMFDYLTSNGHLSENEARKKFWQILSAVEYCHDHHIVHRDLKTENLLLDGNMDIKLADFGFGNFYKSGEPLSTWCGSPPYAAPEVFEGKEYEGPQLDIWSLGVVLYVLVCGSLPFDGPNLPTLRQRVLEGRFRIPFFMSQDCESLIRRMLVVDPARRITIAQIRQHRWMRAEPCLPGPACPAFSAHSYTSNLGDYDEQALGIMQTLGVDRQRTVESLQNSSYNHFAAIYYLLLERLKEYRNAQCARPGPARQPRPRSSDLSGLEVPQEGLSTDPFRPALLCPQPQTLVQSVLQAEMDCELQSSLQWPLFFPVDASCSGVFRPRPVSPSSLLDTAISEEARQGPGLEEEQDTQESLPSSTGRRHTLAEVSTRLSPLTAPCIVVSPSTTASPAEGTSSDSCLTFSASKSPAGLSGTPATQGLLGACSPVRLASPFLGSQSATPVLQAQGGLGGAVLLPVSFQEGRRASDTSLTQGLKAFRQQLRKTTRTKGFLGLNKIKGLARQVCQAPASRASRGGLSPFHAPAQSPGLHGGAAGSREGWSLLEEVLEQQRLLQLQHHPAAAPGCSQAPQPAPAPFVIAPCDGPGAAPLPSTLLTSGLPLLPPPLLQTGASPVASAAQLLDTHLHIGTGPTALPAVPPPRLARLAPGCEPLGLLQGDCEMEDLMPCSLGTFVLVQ

Turning to `CCN1CCC(Nc2cc(-c3c(C)cccc3F)cc3cncnc23)CC1` [Example 126, N-(1-Ethyl-4-piperidyl)-6-(2-fluoro-6-methyl-phenyl)quinazolin-8-amine], the inhibitory constant (Ki) was found to be 6.35 nM on SIK3; 302 nM on EPHA2; 2.95 nM at SIK1; 539 nM on Src; 92.7 nM at Abl; 3.01 nM on SIK2.

Regarding `Cc1cccc(F)c1-c1cc(NC2CCNCC2)c2nc(N)ncc2c1` [Example 124, 6-(2-fluoro-6-methyl-phenyl)-N8-(4-piperidyl)quinazoline-2,8-diamine], the Ki on SIK3 was 0.354 nM; at EPHA2 it was 48.6 nM; at SIK1 it was 0.338 nM; at Src, 17.1 nM; on Abl it was 6.13 nM; at SIK2, 0.0472 nM.

Turning to `Cc1cccc(F)c1-c1cc(N[C@H]2CCN(C)C2)c2cc(N)ncc2c1` [Example 70, 7-(2-fluoro-6-methyl-phenyl)-N5-[(3S)-1-methylpyrrolidin-3-yl]isoquinoline-3,5-diamine], the Ki at SIK3 stood at 4.14 nM; at EPHA2 it was 74.6 nM; at SIK1, 0.439 nM; at Src it was 84.8 nM; at Abl, 9.94 nM; at SIK2 it was 0.111 nM.

`Cc1cccc(F)c1-c1cc(N[C@H]2CC[C@H](O)CC2)c2cc(N)ncc2c1` [Example 109, 4-[[3-amino-7-(2-fluoro-6-methyl-phenyl)-5-isoquinolyl]amino]cyclo hexanol]: the inhibition constant Ki on SIK3 was 14.9 nM; on EPHA2 it was > 1000 nM; on SIK1, 3.76 nM; on Src it was 3330 nM; at Abl, 74.8 nM; at SIK2, 1.6 nM.

As to `Cc1cccc(F)c1-c1cc(NC2CN(C)C2)c2cc(N)ncc2c1` [Example 68, 7-(2-Fluoro-6-methyl-phenyl)-N5-(1-methylazetidin-3-yl)isoquinoline-3,5-diamine], the inhibition constant Ki at SIK3 was 0.993 nM; at EPHA2, 323 nM; on SIK1, 0.532 nM; on Src it was 160 nM; on Abl, 17.8 nM; at SIK2 it was 0.1 nM.

`Cc1cccc(F)c1-c1cc(N[C@@H]2CCCCN(C)C2)c2cc(N)ncc2c1` [Example 80, 7-(2-fluoro-6-methyl-phenyl)-N5-[(3R)-1-methylazepan-3-yl]isoquinoline-3,5-diamine]: the inhibition constant (Ki) on SIK3 was 4.9 nM; at EPHA2, > 1000 nM; on SIK1, 0.905 nM; at Src, 48.6 nM; at Abl it was 15.2 nM; at SIK2, 0.448 nM.

For the compound `Cc1cccc(F)c1-c1cc(NC[C@@H]2CCCN2C)c2cc(N)ncc2c1` [Example 55, 7-(2-fluoro-6-methyl-phenyl)-N5-[[(2S)-1-methylpyrrolidin-2-yl]methyl] isoquinoline-3,5-diamine], the Ki on SIK3 is 3.85 nM; at EPHA2 it was 183 nM; on SIK1 it was 0.954 nM; on Src it was 57 nM; on Abl, 9.11 nM; on SIK2, 0.22 nM.

Take `Cc1cccc(F)c1-c1cc(N2CCC[C@@H](O)C2)c2cc(N)ncc2c1` [Example 108, (3R)-1-[3-amino-7-(2-fluoro-6-methyl-phenyl)-5-isoquinolyl]piperidin-3-ol]: the inhibition constant Ki at SIK3 was determined as 130 nM; at EPHA2 it was 2290 nM; at SIK1, 29.7 nM; on Src, 1880 nM; at Abl, 101 nM; on SIK2 it was 2.39 nM.

As for `CC(=O)N[C@H]1CCN(c2cc(-c3c(C)cccc3F)cc3cnc(N)cc23)C1` [Example 112, N-[(3S)-1-[3-Amino-7-(2-fluoro-6-methyl-phenyl)-5-isoquinolyl]pyrrolidin-3-yl]acetamide], the Ki on SIK3 is 431 nM; on EPHA2, > 10000 nM; on SIK1, 91.6 nM; at Src, > 10000 nM; on Abl it was 124 nM; on SIK2 it was 14.7 nM.

As for `Cc1cccc(F)c1-c1cc(NC[C@@H]2CCCN2)c2cc(N)ncc2c1` [Example 13, 7-(2-fluoro-6-methyl-phenyl)-N5-[[(2S)-pyrrolidin-2-yl]methyl]isoquinoline-3,5-diamine], the Ki came to 1.01 nM at SIK3; 144 nM on EPHA2; 0.501 nM at SIK1; 24.3 nM at Src; 3.29 nM on Abl; 0.191 nM on SIK2.

`Cc1cccc(F)c1-c1cc(C(=O)NC2CCNC2)c2cc(N)ncc2c1` (stereo not drawn) [Example 53, 3-amino-7-(2-fluoro-6-methyl-phenyl)-N-pyrrolidin-3-yl-isoquinoline-5-carboxamide]: the inhibition constant Ki was > 100000 nM on SIK3; > 100000 nM on EPHA2; 12900 nM on SIK1; > 100000 nM on Src; 5530 nM on Abl; 2770 nM at SIK2.

Turning to `Cc1cccc(F)c1-c1cc(NC[C@H]2CCN(C)C2)c2cc(N)ncc2c1` [Example 75, 7-(2-fluoro-6-methyl-phenyl)-N5-[[(3R)-1-methylpyrrolidin-3-yl]methyl] isoquinoline-3,5-diamine], the Ki at SIK3 was found to be 2 nM; on EPHA2, 120 nM; at SIK1 it was 0.618 nM; at Src, 45.2 nM; on Abl, 10.3 nM; on SIK2 it was 0.19 nM.

Consider `Cc1cccc(F)c1-c1cc(N[C@@H]2CCCCNC2)c2cc(N)ncc2c1` [Example 17, N5-[(3R)-azepan-3-yl]-7-(2-fluoro-6-methyl-phenyl)isoquinoline-3,5-diamine], for which the Ki at SIK3 is 1.65 nM; on EPHA2, > 1000 nM; at SIK1, 0.463 nM; on Src, > 1000 nM; at Abl, 2.55 nM; at SIK2 it was 0.096 nM.

For the compound `Cc1cccc(F)c1-c1cc(O[C@@H]2CCNC2)c2cc(N)ncc2c1` [Example 48, 7-(2-fluoro-6-methyl-phenyl)-5-[(3R)-pyrrolidin-3-yl]oxy-isoquinolin-3-amine], the Ki at SIK3 came to 0.298 nM; at EPHA2, 227 nM; on SIK1 it was 0.338 nM; on Src it was 320 nM; at Abl it was 22.6 nM; on SIK2, 0.089 nM.

Turning to `Cc1cccc(F)c1-c1cc(N2CC[C@@H](N(C)C)C2)c2cc(N)ncc2c1` [Example 58, 5-[(3R)-3-(dimethylamino)pyrrolidin-1-yl]-7-(2-fluoro-6-methyl-phenyl)isoquinolin-3-amine], the inhibitory constant (Ki) at SIK3 was 8.64 nM; at EPHA2, > 1000 nM; on SIK1, 5.37 nM; at Src it was 1400 nM; on Abl, 107 nM; on SIK2, 1.11 nM.

On to `Cc1cccc(F)c1-c1cc(N2CCC[C@H](CN(C)C)C2)c2cc(N)ncc2c1` [Example 60, 5-[(3R)-3-[(dimethylamino)methyl]-1-piperidyl]-7-(2-fluoro-6-methyl-phenyl)isoquinolin-3-amine], for which the inhibition constant Ki on SIK3 was 42.4 nM; on EPHA2 it was > 1000 nM; at SIK1 it was 7.97 nM; at Src, 798 nM; at Abl, 223 nM; on SIK2, 1.46 nM.

For `Cc1cccc(Cl)c1-c1ccc2c(C(=O)N[C@@H]3CCNC3)c(N)ncc2c1` [Example 42, 3-amino-7-(2-chloro-6-methyl-phenyl)-N-[(3R)-pyrrolidin-3-yl]isoquinoline-4-carboxamide], the Ki was determined as 100 nM at SIK3; 173 nM at EPHA2; 17 nM at SIK1; 202 nM on Src; 340 nM on Abl; 6.55 nM on SIK2.

As to `Cc1cccc(F)c1-c1cc(NC[C@@H]2CCN(C)C2)c2cc(N)ncc2c1` [Example 74, 7-(2-fluoro-6-methyl-phenyl)-N5-[[(3S)-1-methylpyrrolidin-3-yl]methyl]isoquinoline-3,5-diamine], the Ki on SIK3 was 0.765 nM; on EPHA2, 66.1 nM; on SIK1, 0.461 nM; at Src, > 1000 nM; at Abl, 0.505 nM; on SIK2 it was 0.101 nM.

By Ki is commonly meant a measure of affinity in units of concentration, obtained from inhibition or displacement.

For the origin of these results see patent US12637428B2, “Isoquinoline derivatives as SIK2 inhibitors” (Cancer Research Technology Limited, priority 2019, dated 2026).
